In BigSolDB 2.1:

O=C1CCC(=O)O1
solubility (mole fraction)
Conditions | 283.15 K | 288.15 K | 293.15 K | 298.15 K | 303.15 K | 308.15 K | 313.15 K | 318.15 K | 323.15 K
in THF | 0.071 | 0.077 | 0.085 | 0.093 | 0.104 | 0.115 | 0.129 | 0.145 | 0.164
in gamma-butyrolactone | 0.197 | 0.218 | 0.239 | 0.261 | 0.283 | 0.307 | 0.331 | 0.354 | 0.378
